Values quoted from earlier work in US10632083B2, “Ophthalmic compositions” (SaCSh Corp., priority 2016, dated 2020).

## [H]/N=C(\N/C(=N/[H])NCCCCCCNC(=N)NC(=N)Nc1ccc(Cl)cc1)Nc1ccc(Cl)cc1 [chlorhexidine, N,N″″1,6-Hexanediylbis[N′-(4-chlorophenyl)(imidodicarbonimidic diamide)]]
Tabor et al. 1989, four cases
  eye damage after topical chlorhexidine accidentally got into the eyes: irreversible corneal damage
Van Rij et al. 1995, led to bullous keratopathy, all affected patients required corneal transplant
  eye damage after accidental application to patients undergoing eye surgery: immediate corneal edema
